“And” between values parts separate entries of the source, which are not always exact repeats. Identical values can stand only once. Each block holds one compound with its values, some of them ahead of it.
Legend:
[1] = target: T1, Inhibitor of nuclear factor kappa-B kinase subunit epsilon (Homo sapiens) (UniProt Q14164); conditions: at 1 µM
T1 sequence (whole entry): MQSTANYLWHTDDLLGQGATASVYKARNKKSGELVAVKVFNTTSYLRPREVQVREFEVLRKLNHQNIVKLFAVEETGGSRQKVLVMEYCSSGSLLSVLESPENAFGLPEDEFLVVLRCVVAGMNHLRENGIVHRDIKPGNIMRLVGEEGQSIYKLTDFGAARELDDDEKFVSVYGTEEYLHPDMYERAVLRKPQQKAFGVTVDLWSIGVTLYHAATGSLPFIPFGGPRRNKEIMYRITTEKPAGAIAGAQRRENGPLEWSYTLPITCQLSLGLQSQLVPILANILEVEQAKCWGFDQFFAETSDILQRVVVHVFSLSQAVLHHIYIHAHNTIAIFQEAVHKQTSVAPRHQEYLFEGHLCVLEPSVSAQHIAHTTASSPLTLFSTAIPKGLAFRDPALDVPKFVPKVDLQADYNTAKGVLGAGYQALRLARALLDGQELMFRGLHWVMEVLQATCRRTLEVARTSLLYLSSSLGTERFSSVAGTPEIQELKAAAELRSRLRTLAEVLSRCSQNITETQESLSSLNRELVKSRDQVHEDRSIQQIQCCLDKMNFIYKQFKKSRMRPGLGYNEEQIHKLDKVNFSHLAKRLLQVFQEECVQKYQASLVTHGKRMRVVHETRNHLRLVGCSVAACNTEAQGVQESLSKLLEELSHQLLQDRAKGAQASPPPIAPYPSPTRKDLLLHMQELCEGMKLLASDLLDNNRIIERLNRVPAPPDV

[2] = target: T2, Serine/threonine-protein kinase TBK1 (Homo sapiens) (UniProt Q9UHD2); conditions: at 1 µM
T2 sequence (whole entry): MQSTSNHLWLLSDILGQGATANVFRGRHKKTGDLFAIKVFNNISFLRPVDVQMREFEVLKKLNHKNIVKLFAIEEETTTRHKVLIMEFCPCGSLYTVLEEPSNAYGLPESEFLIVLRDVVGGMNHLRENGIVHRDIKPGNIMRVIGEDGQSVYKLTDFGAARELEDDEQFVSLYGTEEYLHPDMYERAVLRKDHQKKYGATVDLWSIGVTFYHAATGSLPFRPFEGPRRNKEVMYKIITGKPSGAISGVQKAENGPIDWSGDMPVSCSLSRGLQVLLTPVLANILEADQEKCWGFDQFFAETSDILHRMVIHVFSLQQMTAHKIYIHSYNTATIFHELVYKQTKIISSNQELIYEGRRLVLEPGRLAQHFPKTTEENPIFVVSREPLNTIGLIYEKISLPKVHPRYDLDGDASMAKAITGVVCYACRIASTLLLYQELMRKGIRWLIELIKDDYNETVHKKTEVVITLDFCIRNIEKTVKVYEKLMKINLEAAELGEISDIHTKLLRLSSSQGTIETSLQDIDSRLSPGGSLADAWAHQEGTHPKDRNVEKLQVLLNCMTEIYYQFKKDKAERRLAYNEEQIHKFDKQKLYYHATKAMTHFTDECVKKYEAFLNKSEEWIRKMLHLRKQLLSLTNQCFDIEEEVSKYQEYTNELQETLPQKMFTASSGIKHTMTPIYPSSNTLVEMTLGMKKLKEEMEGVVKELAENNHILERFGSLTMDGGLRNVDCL

SMILES: FC(F)(F)c1ccc(-c2nn3ncccc3c2-c2ccnc(Nc3ccc4c(c3)OCCO4)n2)cc1
inhibition [1]: -2%
inhibition [2]: -5% and -7%

SMILES: NC(=O)c1sc(-n2cnc3ccccc32)cc1OCc1ccccc1Br
inhibition [1]: 2% and -1%
inhibition [2]: 0% and 3%

SMILES: Cc1ccc2c(-c3ccnc(Nc4cccc(C(F)(F)F)c4)n3)c(-c3ccccc3)nn2n1
inhibition [1]: 1% and 3%
inhibition [2]: -1% and 1%

SMILES: O=C(O[C@H]1CN[C@H](C#Cc2cc3ncnc(Nc4ccc(Cc5ccccc5)cc4)c3s2)C1)N1CCOCC1
inhibition [1]: 4% and 2%
inhibition [2]: 14% and 20%

SMILES: Cc1cc(O)cc(C)c1/C=C/c1cncc(C(=O)OC(C)(C)C)c1
inhibition [1]: -2% and 0%
inhibition [2]: 0% and -2%

SMILES: COC(=O)c1cncc(/C=C/c2c(C)cc(O)cc2C)c1
inhibition [1]: 0% and 1%
inhibition [2]: -1% and 2%

SMILES: Clc1ccc(CNc2nccc(-c3cnn4ncccc34)n2)cc1
inhibition [1]: 0%
inhibition [2]: -1% and 0%

SMILES: COc1cc(Nc2nccc(-c3cnn4ncccc34)n2)cc(OC)c1
inhibition [1]: 38%
inhibition [2]: 38% and 33%

SMILES: CCn1c(-c2nonc2N)nc2c(C#CC(C)(C)O)nc(OC[C@@H](N)c3ccccc3)cc21
inhibition [1]: 39% and 40%
inhibition [2]: 6% and 7%

SMILES: CS(=O)(=O)CCNCc1ccc(-c2ccc3ncnc(Nc4ccc(OCc5ccccc5)c(Br)c4)c3c2)o1
inhibition [1]: -2% and -1%
inhibition [2]: 0% and 1%

SMILES: COc1cc2c(cc1Nc1nc(Nc3ccsc3C(N)=O)c3cc[nH]c3n1)N(C(=O)CN(C)C)CCC2(C)C
inhibition [1]: 39% and 44%
inhibition [2]: 57% and 54%

SMILES: c1cnn2ncc(-c3ccnc(NCCCN4CCOCC4)n3)c2c1
inhibition [1]: 1% and 2%
inhibition [2]: -2% and -4%

SMILES: c1ccc(COc2ccc(Nc3ncnc4ccc(-c5ccco5)cc34)cc2)cc1
inhibition [1]: -3% and -1%
inhibition [2]: -3% and -2%

SMILES: CS(=O)(=O)CCNCc1ccc(-c2ccc3ncnc(Nc4ccc(OCc5cccc(F)c5)c(C(F)(F)F)c4)c3c2)o1
inhibition [1]: 1% and 4%
inhibition [2]: 3% and 1%

SMILES: NS(=O)(=O)c1ccc(-c2cc3ccncc3cc2OCc2ccccc2)cc1
inhibition [1]: 0% and 1%
inhibition [2]: -1% and 0%

SMILES: COc1ccccc1-c1cc(/C=C2\C(=O)Nc3ncc(Br)cc32)cc(Br)c1O
inhibition [1]: 10%
inhibition [2]: 15% and 7%

SMILES: CCn1c(-c2nonc2N)nc2c(C#CCN)ncc(OCCCN)c21
inhibition [1]: 8% and 6%
inhibition [2]: 1% and 4%

SMILES: FC(F)(F)c1cccc(Nc2nccc(-c3cnn4nc(-c5ccccc5)ccc34)n2)c1
inhibition [1]: 7% and 5%
inhibition [2]: 17% and 7%

SMILES: COc1cc2ncn(-c3cc(OCc4ccccc4Cl)c(C(N)=O)s3)c2cc1OC
inhibition [1]: 8% and 7%
inhibition [2]: 56% and 50%

SMILES: Cn1c(-c2nonc2N)nc2cnccc21
inhibition [1]: 2% and 3%
inhibition [2]: -4% and -2%

SMILES: CN1CCN(C(=O)c2ccc(NC(=O)Nc3ccc(N(C)c4ccnc(Nc5ccc(CS(C)(=O)=O)cc5)n4)cc3)cc2)CC1
inhibition [1]: 26% and 22%
inhibition [2]: 14% and 13%

SMILES: COc1cc(C=NNc2ncnc3c2cnn3Cc2ccccc2)ccc1O
inhibition [1]: 1% and -1%
inhibition [2]: 9% and 14%

SMILES: CCn1c(-c2nonc2N)nc2cncc(C(=O)N3CCNCC3)c21
inhibition [1]: -2% and 0%
inhibition [2]: 3% and 0%

SMILES: CCn1c(-c2nonc2N)nc2ccc(F)cc21
inhibition [1]: -1%
inhibition [2]: 2% and 1%

SMILES: C#Cc1cccc(Nc2ncnc3ccc(OCCCCNCCS(C)(=O)=O)cc23)c1
inhibition [1]: -2% and 0%
inhibition [2]: -4% and 0%

SMILES: CNC(=O)c1cccc(C#Cc2cncnc2Nc2ccc(OCc3cccc(F)c3)c(Cl)c2)c1
inhibition [1]: 7% and 1%
inhibition [2]: 6% and 3%

SMILES: CCc1cccc(CC)c1/C=C/c1cncc(C(=O)NC)c1
inhibition [1]: -2% and -3%
inhibition [2]: 0% and -2%

SMILES: Nc1nc(-c2cccc(Cl)c2)c(-c2ccc3ncccc3n2)s1
inhibition [1]: 1%
inhibition [2]: 5% and 7%

SMILES: CCc1nccc2c1nc(-c1nonc1N)n2CC
inhibition [1]: -3% and 0%
inhibition [2]: -2% and 1%

SMILES: COc1ccc(-c2nn3ncccc3c2-c2ccnc(Nc3cccc(C(F)(F)F)c3)n2)cc1
inhibition [1]: -1% and 0%
inhibition [2]: -2% and 0%

SMILES: N#Cc1cccc(Nc2ncc(-c3ccccc3)o2)c1
inhibition [1]: 1% and -3%
inhibition [2]: 4%

SMILES: [O-][S+]1CCN(Cc2ccc(-c3ccc4ncnc(Nc5ccc(OCc6ccccc6)c(Cl)c5)c4c3)o2)CC1
inhibition [1]: -3%
inhibition [2]: -4% and -6%

SMILES: c1ccc(-c2n[nH]cc2-c2ccnc(-c3ccc(OCCn4ccnc4)cc3)c2)nc1
inhibition [1]: -2% and 0%
inhibition [2]: -4% and -3%

SMILES: CCOc1ccc2c(-c3ccnc(Nc4cc(OC)cc(C(F)(F)F)c4)n3)cnn2n1
inhibition [1]: 32% and 31%
inhibition [2]: 51% and 43%

SMILES: COc1cc2ncnc(Nc3ccc(C)c(O)c3)c2cc1OC
inhibition [1]: -1% and -2%
inhibition [2]: 3% and 1%

SMILES: COc1cc2ncn(-c3cc(O[C@@H](C)c4ccccc4Cl)c(C(N)=O)s3)c2cc1OC
inhibition [1]: 6% and 8%
inhibition [2]: 54% and 57%

SMILES: COc1cc(Nc2ncc3c(C)nc(-c4cccc(Oc5ccccc5)c4)n3n2)cc(OC)c1OC
inhibition [1]: 59%
inhibition [2]: 75% and 71%

SMILES: Fc1cccc(COc2ccc(Nc3ncnc4sc(-c5cccs5)cc34)cc2Cl)c1
inhibition [1]: -2%
inhibition [2]: -3% and -2%

Other lines, results leading:

inhibition [1]: 1% and 3%
inhibition [2]: 4% and 3%
SMILES: COc1ccc(-c2ccncc2)cc1C(N)=O

inhibition [1]: 5%
inhibition [2]: 19% and 18%
SMILES: O=C1NC(=O)C(c2cccc(Cl)c2)=C1Nc1ccc(Cl)c(C(=O)O)c1

inhibition [1]: 22% and 23%
inhibition [2]: 33% and 30%
SMILES: COc1cc(Nc2nccc(Nc3ccc4c(C)n[nH]c4c3)n2)cc(OC)c1OC

inhibition [1]: -4% and -3%
inhibition [2]: -4% and -6%
SMILES: N#Cc1c(NC(=O)c2ccc(F)cc2)sc2c1CCCC2

inhibition [1]: -1% and 0%
inhibition [2]: -5% and -3%
SMILES: CC1=C(C(=O)Nc2ccc3[nH]nc(C)c3c2)C(c2ccc(C(F)(F)F)cc2)CC(=O)N1 (centres undefined)

inhibition [1]: 0% and -2%
inhibition [2]: -1% and -2%
SMILES: Cc1ccc(C(=O)NC(C)C)cc1-c1ccc(C(=O)NCC2CC2)cc1

inhibition [1]: -1% and 0%
inhibition [2]: 4% and 5%
SMILES: COc1ccc(-c2ccc3c(NC(=O)C4CC4)n[nH]c3n2)cc1

inhibition [1]: 10% and 5%
inhibition [2]: 13%
SMILES: CCS(=O)(=O)c1ccc(OC)c(Nc2ncc(-c3cccc(-c4ccccc4F)c3)o2)c1

inhibition [1]: -3%
inhibition [2]: -4% and -2%
SMILES: O=C(Nc1n[nH]c2cc(-c3cc(F)ccc3F)ccc12)C1CC1

inhibition [1]: -1% and 1%
inhibition [2]: -2% and 3%
SMILES: Cc1ccc2c(c1)/C(=N/Nc1ccc(S(N)(=O)=O)cc1)C(=O)N2

inhibition [1]: -1% and -3%
inhibition [2]: 1% and 3%
SMILES: O=C(O[C@H]1CN[C@H](C#Cc2cc3ncnc(Nc4ccc(OCc5cccc(F)c5)c(Cl)c4)c3s2)C1)N1CCOCC1

inhibition [1]: -2%
inhibition [2]: 0% and -4%
SMILES: COc1ccc2ncn(-c3cc(O[C@H](C)c4ccccc4Cl)c(C(N)=O)s3)c2c1

inhibition [1]: -1% and -2%
inhibition [2]: -4% and -6%
SMILES: Cc1ccc(C(=O)NC2CCC2)cc1-c1ccc(C(=O)NCC2CC2)cc1

inhibition [1]: 0% and -2%
inhibition [2]: 0% and -3%
SMILES: CCCN1CCC(Oc2cc(Nc3nc(Nc4cccc(F)c4C(N)=O)c4cc[nH]c4n3)c(OC)cc2Cl)CC1

inhibition [1]: -1% and 0%
inhibition [2]: 2% and 1%
SMILES: NS(=O)(=O)c1cccc(-c2ccc3c(NC(=O)C4CC4)n[nH]c3c2)c1

inhibition [1]: -3% and -4%
inhibition [2]: -8% and -6%
SMILES: COc1ccc2ncn(-c3cc(O[C@H](C)c4ccccc4C(F)(F)F)c(C(N)=O)s3)c2c1

inhibition [1]: -4% and -3%
inhibition [2]: -6% and -9%
SMILES: COc1ccc(-c2nn3ncccc3c2-c2ccnc(Nc3ccc(F)c(F)c3)n2)cc1

inhibition [1]: 1% and 3%
inhibition [2]: 0% and 1%
SMILES: Nc1nccc(-c2c(-c3ccc(F)cc3)ncn2CCCN2CCOCC2)n1

inhibition [1]: -1% and -2%
inhibition [2]: -4% and 3%
SMILES: Fc1ccc(-c2nc3n(c2-c2ccncc2)CCS3)cc1

inhibition [1]: -1% and 0%
inhibition [2]: 0% and 1%
SMILES: COc1c(C(N)=O)cc(-c2ccc(Cl)cc2)cc1-c1ccc(S(N)(=O)=O)cc1

inhibition [1]: 6% and 4%
inhibition [2]: 16% and 10%
SMILES: COc1cc(N2CCN(C(C)C)CC2)ccc1Nc1nc(Nc2ccc(F)cc2C(N)=O)c2cc[nH]c2n1

inhibition [1]: -2% and -3%
inhibition [2]: -4% and -3%
SMILES: N#Cc1c(NC(=O)c2cccc3ccccc23)sc2c1CCCC2

inhibition [1]: 0% and 1%
inhibition [2]: 0% and -2%
SMILES: Nc1nccc(-c2c(-c3ccc(F)cc3)ncn2C2CCC(O)CC2)n1 (centres undefined)

inhibition [1]: 0% and -1%
inhibition [2]: -1% and -2%
SMILES: NC(=O)Cc1ccccc1Oc1nccc(-c2c(-c3ccc(F)cc3)ncn2C2CCNCC2)n1

— ChEMBL document CHEMBL2007661, “Compounds: GSK PKIS; Assays: UNC Frye lab” (2012)
